# What was measured:
# Aphidius rhopalosiphi = conditions: acute; duration: 7 days; mortality
# Apis mellifera = conditions: acute, mortality
# Bibionidae = conditions: chronic/long-term, duration: 28 days
# Bird = conditions: reproductive; oral; feed
# Colinus virginianus = conditions: acute, oral, mortality
# Daphnia magna = conditions: chronic/long-term; duration: 21 days; reproduction
# Oncorhynchus mykiss = conditions: acute; duration: 96 hours; mortality
# Pimephales promelas = conditions: chronic/long-term; duration: 35 days; growth
# Tagia sp. = conditions: acute; duration: 14 days; mortality
structure (smiles),measurement,setting,value
CCCN(CCC)c1c([N+](=O)[O-])cc(C(F)(F)F)cc1[N+](=O)[O-] [Trifluralin],LEL,Aphidius rhopalosiphi,1200 g/ha
same,LD50,"Apis mellifera; duration: 48 hours, dermal",> 100 µg/piece
same,LD50,"Apis mellifera; oral, unspecified",> 100 µg/piece
same,NOEC,Bibionidae; development,0.25 mg/L
same,NOEC,Bibionidae; mortality,810 mg/kg
same,NOEC,Bird,1000 mg/kg
same,LC50,Colinus virginianus; diet,2970 mg/kg
same,LD50,Colinus virginianus,> 2250 mg/kg
same,NOEC,Daphnia magna,0.0507 mg/L
same,LC50,Oncorhynchus mykiss,0.088 µg/mL
same,NOEC,Pimephales promelas,0.0003 mg/L
same,LD50,"Rattus norvegicus; acute, oral, mortality",> 5000 mg/kg
same,LOAEL,"Rattus norvegicus; chronic, duration: 2 years, histopathology: neoplastic",30 mg/kg-day
same,NOAEL,Rattus norvegicus; reproduction developmental,148 mg/kg-day
same,NOAEL,"Rattus norvegicus; subchronic, duration: 90 days",2.6 mg/kg-day
same,LC50,Tagia sp.,> 1000 mg/kg
